Data set [1] deals with P388. Nature of the data set: Antitumor activity against mouse P388 cells allografted in ip dosed mouse assessed as optimal dose. In kind it is functional.
For data set [2], the system named is P388. As to the kind of experiment: Antitumor activity against mouse P388 cells allografted in mouse assessed as average survival time at 2.9 mg/kg, ip relative to untreated control. As to conditions: route intraperitoneal. Type of data set: functional.
Data set [3] concerns Mus musculus. Nature of the data set: Toxicity in mouse allografted with mouse P388 cells at 2.9 mg/kg, ip. In kind it is organism-based. More on the design: dose 2.9 mg/kg, route intraperitoneal. To be noted: in vivo.
In data set [4] the test system is L1210. Nature of the data set: Antitumor activity against mouse L1210 cells allografted in mouse assessed as average survival time at 4.4 mg/kg, ip relative to untreated control. As to conditions: route intraperitoneal. Type of data set: functional.
Data set [5] relates to L1210. As to the kind of experiment: Antitumor activity against mouse L1210 cells allografted in mouse assessed as average survival time at 6.6 mg/kg, ip relative to untreated control. In kind it is functional. To be noted: route intraperitoneal.
In data set [6] the test system is P388. Nature of the data set: Antitumor activity against mouse P388 cells allografted in mouse assessed as average survival time at 6.6 mg/kg, ip relative to untreated control. As to conditions: route intraperitoneal. In kind it is functional.
Data set [7] has as its system Mus musculus. As to the kind of experiment: Toxicity in mouse allografted with mouse P388 cells at 6.6 mg/kg, ip. Type of data set: organism-based. More on the design: dose 6.6 mg/kg, route intraperitoneal. As to conditions: in vivo.
Data set [8] concerns L1210. As to the kind of experiment: Antitumor activity against mouse L1210 cells allografted in mouse assessed as average survival time at 10 mg/kg, ip relative to untreated control. As to conditions: route intraperitoneal. Type of data set: functional.
Data set [9] has as its system P388. As to the kind of experiment: Antitumor activity against mouse P388 cells allografted in mouse assessed as average survival time at 20 mg/kg, ip relative to untreated control. To be noted: route intraperitoneal. In kind it is functional.
Data set [10] deals with Mus musculus. As to the kind of experiment: Toxicity in mouse allografted with mouse P388 cells at 20 mg/kg, ip. As to conditions: in vivo. Set-up: dose 20 mg/kg, route intraperitoneal. In kind it is organism-based.
Data set [11] concerns L1210. Nature of the data set: Antitumor activity against mouse L1210 cells allografted in mouse assessed as average survival time at 22.5 mg/kg, ip relative to untreated control. In kind it is functional. To be noted: route intraperitoneal.
Data set [12] relates to L1210. Nature of the data set: Antitumor activity against mouse L1210 cells allografted in mouse assessed as average survival time at 15 mg/kg, ip relative to untreated control. Type of data set: functional. As to conditions: route intraperitoneal.
In data set [13] the test system is P388. As to the kind of experiment: Antitumor activity against mouse P388 cells allografted in mouse assessed as average survival time at 4.4 mg/kg, ip relative to untreated control. To be noted: route intraperitoneal. Type of data set: functional.
Data set [14] relates to Mus musculus. As to the kind of experiment: Toxicity in mouse allografted with mouse P388 cells at 4.4 mg/kg, ip. In kind it is organism-based. Set-up: dose 4.4 mg/kg, route intraperitoneal. To be noted: in vivo.

Regarding `COc1cccc2c1C(=O)c1c(O)c3c(c(O)c1C2=O)C[C@@](O)(C(C)=O)C[C@@H]3O[C@H]1C[C@H](N)[C@H](OC)[C@H](C)O1`, the Optimal dose in [1] was 2.9 mg/kg. The T/C in [2] came to 156%. For the same compound, the Activity entry in data set [3] is “Non-toxic”.
In the case of `COc1cccc2c1C(=O)c1c(O)c3c(c(O)c1C2=O)C[C@@](O)(C(=O)CO)C[C@@H]3O[C@H]1C[C@H](N)[C@H](OC)[C@H](C)O1`, the T/C came out at 287% in data set [4], 231% in data set [5], 270% in [6] and 62% in [8]. In addition, the Optimal dose in [1] stood at 6.6 mg/kg. For the same compound, the Activity entry in [7] is recorded as “Non-toxic”.
Turning to `COc1cccc2c1C(=O)c1c(O)c3c(c(O)c1C2=O)C[C@@](O)(C(C)=O)C[C@@H]3O[C@H]1C[C@H](N)[C@@H](OC)[C@H](C)O1`, the Optimal dose in data set [1] turned out to be 20 mg/kg. In addition, the T/C in data set [9] amounted to 174%. Besides, the Activity entry in data set [10] was “Non-toxic”.
Consider `COc1cccc2c1C(=O)c1c(O)c3c(c(O)c1C2=O)C[C@@](O)(C(=O)CO)C[C@@H]3O[C@H]1C[C@H](N)[C@@H](OC)[C@H](C)O1`, for which the T/C in data set [5] was determined as 169%; in [11], 87%; in data set [12], 181%; in [8], 187%.
Take `COc1cccc2c1C(=O)c1c(O)c3c(c(O)c1C2=O)C[C@@](O)(C(C)=O)C[C@@H]3O[C@H]1C[C@H](N)[C@H](O)[C@H](C)O1` [DAUNORUBICIN]: in [1], the Optimal dose turned out to be 2.9 mg/kg. For the same compound, the T/C in data set [2] was determined as 169%. In addition, the Activity result in data set [3] is on record as “Non-toxic”.
With `COc1cccc2c1C(=O)c1c(O)c3c(c(O)c1C2=O)C[C@@](O)(C(=O)CO)C[C@@H]3O[C@H]1C[C@H](N)[C@H](O)[C@H](C)O1` [DOXORUBICIN], the T/C in data set [4] turned out to be 169%; in [13], 254%; in [5], 175%; in data set [8] it was 187%. The Optimal dose in data set [1] was 4.4 mg/kg. In addition, the Activity result in data set [14] is listed as “Non-toxic”.

For the origin of these results see ChEMBL document CHEMBL3227963, “Synthesis and antitumor activity of 4'-O-methyldaunorubicin, 4'-O-methyladriamycin, and their 4'-epi analogues” (J Med Chem, 1979).
